In PubChem BioAssay (NCI):
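Each compound was tested at five concentrations against cells in 96-well plates for 48 hours. At the GI50, growth is halved. The concentration for full growth arrest is given as TGI.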

Tests used:
Test in all cases: DTP human tumour cell line panel, 48 h
[1] = tested on: 786-0 renal
[2] = tested on: A549 NSCLC
[3] = tested on: BT-549 breast
[4] = tested on: CAKI-1 renal
[5] = tested on: CCRF-CEM leukemia
[6] = tested on: COLO 205 colon
[7] = tested on: DU-145 prostate
[8] = tested on: EKVX NSCLC
[9] = tested on: HCC-2998 colon
[10] = tested on: HCT-116 colon
[11] = tested on: HCT-15 colon
[12] = tested on: HL-60(TB) leukemia
[13] = tested on: HOP-62 NSCLC
[14] = tested on: M14 melanoma
[15] = tested on: MDA-MB-231 breast
[16] = tested on: MDA-MB-435
[17] = tested on: MDA-N
[18] = tested on: MOLT-4 leukemia
[19] = tested on: NCI-H226 lung
[20] = tested on: NCI-H23 lung
[21] = tested on: NCI-H522 lung
[22] = tested on: NCI/ADR-RES ovarian
[23] = tested on: OVCAR-3 ovarian
[24] = tested on: OVCAR-5 ovarian
[25] = tested on: PC-3 prostate
[26] = tested on: SF-539 CNS
[27] = tested on: SK-MEL-2 melanoma
[28] = tested on: SK-MEL-28 melanoma
[29] = tested on: SK-OV-3 ovarian
[30] = tested on: SN12C renal
[31] = tested on: SR leukemia
[32] = tested on: SW-620 colon
[33] = tested on: T-47D breast
[34] = tested on: UACC-257 melanoma
[35] = tested on: UACC-62 melanoma
[36] = tested on: A498 renal
[37] = tested on: ACHN renal
[38] = tested on: HOP-92 NSCLC
[39] = tested on: HT29 colon
[40] = tested on: IGROV1 ovarian
[41] = tested on: K-562 leukemia
[42] = tested on: KM12 colon
[43] = tested on: MALME-3M melanoma
[44] = tested on: MCF7 breast
[45] = tested on: NCI-H460 lung
[46] = tested on: OVCAR-4 ovarian
[47] = tested on: OVCAR-8 ovarian
[48] = tested on: RXF 393 renal
[49] = tested on: SF-268 CNS
[50] = tested on: SF-295 CNS
[51] = tested on: SK-MEL-5 melanoma
[52] = tested on: SNB-19 CNS
[53] = tested on: SNB-75 CNS
[54] = tested on: TK-10 renal
[55] = tested on: U251 CNS
[56] = tested on: UO-31 renal

With `COc1cccc2c1C(=O)c1c(O)c3c(c(O)c1C2=O)CC(O)(C(=O)CO)CC3OC1CC(N2CCOCC2C#N)C(O)C(C)O1` (centres undefined) the TGI [1] was 5.22 µM, the TGI [2] was > 100 µM and the TGI [3] was 0.00113 µM. For the same compound, the TGI [4] was 0.00425 µM, the TGI [5] was < 0.0001 µM and the TGI [6] was < 0.0001 µM. For the same compound, the TGI [7] was > 100 µM, the TGI [8] was < 0.0001 µM and the TGI [9] was < 0.0001 µM. For the same compound, the TGI [10] was 12.2 µM, the TGI [11] was 1.56 µM and the TGI [12] was < 0.0001 µM. The TGI [13] was < 0.0001 µM, the TGI [14] was < 0.0001 µM and the TGI [15] was < 0.0001 µM. The TGI [16] was < 0.0001 µM, the TGI [17] was < 0.0001 µM and the TGI [18] was < 0.0001 µM. The TGI [19] was < 0.0001 µM, the TGI [20] was 0.128 µM and the TGI [21] was < 0.0001 µM. The TGI [22] was 0.00357 µM, the TGI [23] was 3.28 µM and the TGI [24] was 19.1 µM. The TGI [25] was < 0.0001 µM, the TGI [26] was < 0.0001 µM and the TGI [27] was < 0.0001 µM. The TGI [28] was < 0.0001 µM, the TGI [29] was 2.4 µM and the TGI [30] was 0.00109 µM. For the same compound, the TGI [31] was > 100 µM, the TGI [32] was 0.0569 µM and the TGI [33] was < 0.0001 µM. For the same compound, the TGI [34] was < 0.0001 µM and the TGI [35] was < 0.0001 µM.
In the case of `COc1cc2oc(-c3ccc(O)cc3)c(OC)c(=O)c2c(O)c1OC`, the GI50 [36] is reported as 11 µM, the TGI [36] is reported as > 100 µM and the GI50 [2] is reported as 58.6 µM. For the same compound, the TGI [2] was > 100 µM, the GI50 [37] was 35.8 µM and the TGI [37] was > 100 µM. The GI50 [3] was 27.7 µM, the TGI [3] was > 100 µM and the GI50 [4] was 45.1 µM. For the same compound, the TGI [4] was > 100 µM, the GI50 [5] was 15.2 µM and the TGI [5] was > 100 µM. For the same compound, the GI50 [6] was 32.1 µM, the TGI [6] was > 100 µM and the GI50 [7] was 18.3 µM. For the same compound, the TGI [7] was > 100 µM, the GI50 [8] was 97 µM and the TGI [8] was > 100 µM. It also gave a GI50 [9] of 18.8 µM, a TGI [9] of 72.8 µM and a GI50 [10] of 34.8 µM. The TGI [10] was > 100 µM, the GI50 [11] was 23.3 µM and the TGI [11] was > 100 µM. For the same compound, the GI50 [13] was 42.3 µM, the TGI [13] was > 100 µM and the GI50 [38] was 43.9 µM. For the same compound, the TGI [38] was > 100 µM, the GI50 [39] was 31.1 µM and the TGI [39] was > 100 µM. For the same compound, the GI50 [40] was 76.6 µM, the TGI [40] was > 100 µM and the GI50 [41] was 42.8 µM. The TGI [41] was > 100 µM, the GI50 [42] was 78.9 µM and the TGI [42] was > 100 µM. The GI50 [14] was 47.2 µM, the TGI [14] was > 100 µM and the GI50 [43] was 28.4 µM. The TGI [43] was > 100 µM, the GI50 [44] was 51.4 µM and the TGI [44] was > 100 µM. The GI50 [17] was 25.5 µM, the TGI [17] was > 100 µM and the GI50 [18] was 27.4 µM. The TGI [18] was > 100 µM, the GI50 [19] was 45.7 µM and the TGI [19] was > 100 µM. For the same compound, the GI50 [20] was 63.4 µM, the TGI [20] was > 100 µM and the GI50 [45] was 41.1 µM. For the same compound, the TGI [45] was > 100 µM, the GI50 [21] was 45.2 µM and the TGI [21] was > 100 µM. The GI50 [22] was 30.9 µM, the TGI [22] was > 100 µM and the GI50 [23] was > 100 µM. For the same compound, the TGI [23] was > 100 µM, the GI50 [46] was 99.2 µM and the TGI [46] was > 100 µM. The GI50 [24] was > 100 µM, the TGI [24] was > 100 µM and the GI50 [47] was 86.1 µM. The TGI [47] was > 100 µM, the GI50 [25] was 40.6 µM and the TGI [25] was > 100 µM. For the same compound, the GI50 [48] was 29 µM, the TGI [48] was > 100 µM and the GI50 [49] was 79 µM. The TGI [49] was > 100 µM, the GI50 [50] was 36.1 µM and the TGI [50] was > 100 µM. The GI50 [26] was 44.1 µM, the TGI [26] was > 100 µM and the GI50 [27] was 39.2 µM. For the same compound, the TGI [27] was > 100 µM, the GI50 [28] was > 100 µM and the TGI [28] was > 100 µM. For the same compound, the GI50 [51] was 70.1 µM, the TGI [51] was > 100 µM and the GI50 [29] was 49.6 µM. The TGI [29] was > 100 µM, the GI50 [30] was 33.7 µM and the TGI [30] was > 100 µM. The GI50 [52] was > 100 µM, the TGI [52] was > 100 µM and the GI50 [53] was 45.2 µM. For the same compound, the TGI [53] was > 100 µM, the GI50 [32] was > 100 µM and the TGI [32] was > 100 µM. The GI50 [54] was 62.4 µM, the TGI [54] was > 100 µM and the TGI [55] was > 100 µM. For the same compound, the GI50 [34] was > 100 µM, the TGI [34] was > 100 µM and the GI50 [35] was 79.3 µM. For the same compound, the TGI [35] was > 100 µM, the GI50 [56] was 42.6 µM and the TGI [56] was > 100 µM.
